Bridge positions count the residues as written; N and C are the ends. Square brackets hold non-standard residues; d marks the D form. Peptide text beside a SMILES is read from it. d2Nal = N[C@H](Cc1ccc2ccccc2c1)C(=O)O
Tests used:
[1] = target: Somatostatin receptor type 5 (Homo sapiens, UniProt P35346)
[2] = target: Somatostatin receptor type 3 (Homo sapiens, UniProt P32745)
[3] = target: Somatostatin receptor type 2 (Homo sapiens, UniProt P30874)
[4] = target: Somatostatin receptor type 4 (Homo sapiens, UniProt P31391)
Sequence of Somatostatin receptor type 4 (P31391 whole entry): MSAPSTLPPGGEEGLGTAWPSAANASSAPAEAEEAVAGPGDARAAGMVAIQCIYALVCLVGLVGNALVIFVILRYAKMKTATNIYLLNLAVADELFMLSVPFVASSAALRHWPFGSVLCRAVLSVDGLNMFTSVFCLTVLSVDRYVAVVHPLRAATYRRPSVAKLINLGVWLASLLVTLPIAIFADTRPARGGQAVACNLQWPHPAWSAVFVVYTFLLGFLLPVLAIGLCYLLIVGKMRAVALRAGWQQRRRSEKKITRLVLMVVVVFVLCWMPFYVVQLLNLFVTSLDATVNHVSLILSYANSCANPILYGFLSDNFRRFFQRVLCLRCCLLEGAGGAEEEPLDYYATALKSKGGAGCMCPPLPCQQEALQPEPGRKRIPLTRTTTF

Sequence of Somatostatin receptor type 3 (P32745 whole entry): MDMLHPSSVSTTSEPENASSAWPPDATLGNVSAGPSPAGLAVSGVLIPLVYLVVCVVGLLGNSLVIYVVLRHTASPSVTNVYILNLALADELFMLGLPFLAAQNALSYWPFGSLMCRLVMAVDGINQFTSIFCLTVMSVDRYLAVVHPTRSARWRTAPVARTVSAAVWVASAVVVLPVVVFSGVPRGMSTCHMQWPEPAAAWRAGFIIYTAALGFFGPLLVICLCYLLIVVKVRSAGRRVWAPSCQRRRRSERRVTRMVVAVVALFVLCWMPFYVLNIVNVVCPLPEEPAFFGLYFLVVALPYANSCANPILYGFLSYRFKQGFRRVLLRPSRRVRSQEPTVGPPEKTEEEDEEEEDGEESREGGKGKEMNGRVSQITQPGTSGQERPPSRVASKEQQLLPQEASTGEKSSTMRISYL
Sequence of Somatostatin receptor type 5 (P35346 whole entry): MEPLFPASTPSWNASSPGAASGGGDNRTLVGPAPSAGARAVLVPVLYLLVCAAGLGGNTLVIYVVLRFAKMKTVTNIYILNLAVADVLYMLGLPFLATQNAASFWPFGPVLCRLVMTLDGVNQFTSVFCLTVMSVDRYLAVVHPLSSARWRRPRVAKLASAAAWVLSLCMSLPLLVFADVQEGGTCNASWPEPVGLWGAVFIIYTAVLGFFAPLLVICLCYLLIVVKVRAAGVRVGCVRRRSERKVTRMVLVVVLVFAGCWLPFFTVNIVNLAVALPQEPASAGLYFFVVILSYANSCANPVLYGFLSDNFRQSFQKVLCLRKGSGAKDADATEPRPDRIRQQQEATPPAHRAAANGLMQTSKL
Sequence of Somatostatin receptor type 2 (P30874 whole entry): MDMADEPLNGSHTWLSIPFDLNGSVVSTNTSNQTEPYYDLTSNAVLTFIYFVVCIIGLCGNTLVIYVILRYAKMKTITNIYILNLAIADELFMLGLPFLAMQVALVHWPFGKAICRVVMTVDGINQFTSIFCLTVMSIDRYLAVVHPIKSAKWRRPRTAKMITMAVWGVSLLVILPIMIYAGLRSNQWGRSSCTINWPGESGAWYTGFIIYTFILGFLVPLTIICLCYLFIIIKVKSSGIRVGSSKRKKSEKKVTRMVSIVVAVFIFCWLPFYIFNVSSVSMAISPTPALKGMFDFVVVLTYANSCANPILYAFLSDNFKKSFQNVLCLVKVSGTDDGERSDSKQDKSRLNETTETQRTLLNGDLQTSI

IC50 [1] [nM]	IC50 [3] [nM]	IC50 [4] [nM]	SMILES	IC50 [2] [nM]
0.37	15.1	–	C[C@@H](O)[C@@H]1NC(=O)[C@H](CCCCN)NC(=O)[C@@H](Cc2c[nH]c3ccccc23)NC(=O)[C@H](Cc2ccccc2)NC(=O)[C@H](Cc2ccccc2)NC(=O)[C@H](N)CSSC[C@H](C(N)=O)NC(=O)[C@H](Cc2ccccc2)NC1=O (H-[dC]FF[dW]KTF[dC]-NH2; disulfide 1-8)	61.6
–	–	132	C[C@@H](O)[C@H](NC(=O)[C@H](Cc1ccccc1)NC(=O)[C@@H](NC(=O)[C@H](CCCCN)NC(=O)[C@@H](Cc1c[nH]c2ccccc12)NC(=O)[C@H](Cc1ccccc1)NC(=O)[C@H](Cc1ccccc1)NC(=O)[C@H](N)Cc1ccccc1)[C@@H](C)O)C(N)=O [CAS_133073-82-2] (H-[dF]FF[dW]KTFT-NH2)	–
12.1	132	234	CC(C)[C@H](NC(=O)[C@H](CCCCN)NC(=O)[C@@H](Cc1c[nH]c2ccccc12)NC(=O)[C@H](Cc1ccc(O)cc1)NC(=O)[C@H](Cc1ccccc1)NC(=O)[C@H](N)Cc1ccccc1)C(=O)N[C@@H](Cc1ccccc1)C(=O)N[C@H](Cc1ccc2ccccc2c1)C(N)=O [CAS_150155-61-6] (H-[dF]FY[dW]KVF[d2Nal]-NH2)	177

The next lines start with the compound.

SMILES	IC50 [1] [nM]	IC50 [3] [nM]	IC50 [4] [nM]	IC50 [2] [nM]
CC(C)[C@@H]1NC(=O)[C@H](CCCCN)NC(=O)[C@@H](Cc2c[nH]c3ccccc23)NC(=O)[C@H](Cc2ccc(O)cc2)NC(=O)[C@@H](NC(=O)[C@H](N)Cc2ccc3ccccc3c2)CSSC[C@@H](C(=O)N[C@H](C(N)=O)[C@@H](C)O)NC1=O [3-(2-Naphtyl)-D-Ala-L-Cys(1)-L-Tyr-D-Trp-L-Lys-L-Val-L-Cys(1)-L-Thr-NH2]	–	–	–	107
CC[C@@H]1NC(=O)[C@H](CCCCN)NC(=O)[C@@H](Cc2c[nH]c3ccccc23)NC(=O)[C@H](Cc2ccc(O)cc2)NC(=O)[C@@H](NC(=O)[C@@H](Cc2ccccc2)NC(=O)CN2CCN(CCO)CC2)CSSC[C@@H](C(=O)N[C@H](C(N)=O)[C@@H](C)O)NC1=O [BIM-23190]	–	–	1000	–
CC[C@@H]1NC(=O)[C@H](CCCCN)NC(=O)[C@@H](Cc2c[nH]c3ccccc23)NC(=O)[C@H](Cc2ccc(O)cc2)NC(=O)[C@@H](NC(=O)[C@H](N)Cc2ccccc2)CSSC[C@@H](C(=O)N[C@H](C(N)=O)[C@@H](C)O)NC1=O [D-Phe-L-Cys(1)-L-Tyr-D-Trp-L-Lys-L-Abu-L-Cys(1)-L-Thr-NH2]	–	–	–	89
